How the values were obtained:
Mus musculus [1] = test: Anti-inflammatory activity in CD1 mouse model of TPA-induced ear edema assessed as inhibition of ear edema at 1 umol/ear applied to right ear 10 mins after TPA-stimulation and measured 4 hrs post compound dose; format: functional
Mus musculus [2] = test: Anti-inflammatory activity in CD1 mouse model of TPA-induced ear edema assessed as inhibition of ear edema at 0.1 to 1 umol/ear applied to right ear 10 mins after TPA-stimulation and measured 4 hrs post compound dose; format: functional, organism-based
Mus musculus [3] = test: Anti-inflammatory activity in CD1 mouse model of TPA-induced ear edema assessed as inhibition of ear edema at 0.1 to 1 umol/ear applied to right ear 10 mins after TPA-stimulation and measured 4 hrs post compound dose relative to indomethacin; format: functional

| IC50 (Mus musculus [2]) [µmol] | SMILES | inhibition (INH) (Mus musculus [1]) [%] | Ratio IC50 (Mus musculus [3]) |
| --- | --- | --- | --- |
| 0.67 | C/C(=C\CO)CC[C@@H]1[C@@]2(C)CCCC(C)(C)[C@@H]2CC[C@@]1(C)O | 64.32 | 2 |
| – | C=C1CC[C@H]2C(C)(C)CCC[C@]2(C)[C@H]1CC/C(=C/CO)CO | 41.35 | – |
| 0.297 | COc1ccc2c(c1)c(CC(=O)O)c(C)n2C(=O)c1ccc(Cl)cc1 [INDOMETHACIN] | – | – |
